Results from patent US20190055512A1, “METHODS AND COMPOSITIONS FOR SUBSTITUTING MEMBRANE LIPIDS IN LIVING CELLS” (The Research Foundation for The State University of New York, priority 2016, published 2019).

Columns and labels:
A549 cells [1] = experiment: Phospholipid content by LC/MS/MS after lipid exchange; type: cell-based, human; conditions: mass spectrometry
Experimental: Exchange of Lipids between Cells and Cyclodextrin-lipid Complexes. Unless otherwise noted, the cells are cultured in 10 cm plates with 10 mL medium. After removing the growth medium and washing three times with 10 ml DPBS, a 1500 μL aliquot of cyclodextrin-lipid complex containing MαCD (formed using 1.5 mM lipid and 40 mM MαCD concentrations) was added to 90% confluent mammalian cells cultured in […] cell culture dishes (Corning Incorporated, Durham, N.C.). The cells were then incubated with the cyclodextrin-lipid complex for 1 hour at 37° C., unless otherwise noted. After removal of the cyclodextrin-lipid complex and three washes with 10 mL PBS the cells were removed from the plate by scraping in 5 mL PBS. The cells were then pelleted by centrifugation for 3 minutes at 3,000 rpm and the lipid composition of the pellet was analyzed. […]
Phospholipid Content by LCMS/M S: Phospholipids were extracted from samples as set forth above. […] The class specific phospholipid extracts for each sample were injected on an Agilent (Santa Clara Calif., USA) Eclipse XDB-C8 reversed phase column (4.6×50 mm, 1.8 μm particle size) for separation of molecular species within each class by gradient elution and detected by mass spectrometry utilizing scheduled multiple reaction monitoring. In this manner, a peak with unique column elution time and mass-to-fragment profile was measured. […]

MDA-MB-231 cells = experiment: Transferrin (TF) endocytosis; type: cell-based; conditions: cholesterol depletion, 10 mM MβCD, 30 min, 37° C.
Experimental: Measurement of Transferrin (TF) Endocytosis. MDA-MB-231 cells were plated in 2 ml RPMI 1640 at 6×10^5 on a coverslip in a 35 mm dish. After 1 d, they were subjected to cholesterol depletion or phospholipid exchange. For cholesterol depletion, cells were washed with 1 ml DPBS (2-3 times) and treated with 10 mM M MβCD/DMEM for 30 min at 37° C. in the CO2 incubator. For phospholipid substitution, the DPBS washed cells were treated with mixture of 40 mM MαCD and a combination of 0.75 mM bSM and 0.75 mM POPC in serum free medium for 30 rain, again while maintained at 37° C. in the CO2 incubator. After cholesterol depletion or phospholipid exchange, cells were washed with 1 ml DPBS three times. Then 50 μg/ml TF-AF488 in DMEM was added to the cells and incubated for 10 min in room temperature in the dark. Next, cells were washed with 2 ml DPBS three times and subjected to an additional 3 washes on ice with an acid solution (100 mM citric acid, 140 mM NaCl in distilled water pH adjusted to 1.75), incubating the cells with the solution for 3 min during each wash. The acid wash solution was removed by washing three times with 2 ml of 1×PBS and the cells then fixed using 2 ml 3% PFA for 30 min (10 min on ice and 20 min at room temperature). […]

A549 cells [2] = experiment: Delivery of fluorescent NBD-DPPE into cells, kinetics of exchange; type: cell-based, human
Experimental: Microscopy and Kinetics of Exchange Monitored with Fluorescent Probes and ^3H Acetate: Cyclodextrin-lipid complex containing 1.5 mM lipid (90% bSM and 10% NBD-DPPE) and 40 mM MαCD was prepared. Then, 500 μl of the cyclodextrin-lipid complex was added to 90% confluent A549 cells cultured in 6-well plates (Corning Inc., Durham, N.C.). The cells were incubated for different times at 37° C., and then the cyclodextrin-lipid complex was removed. After three washes with 2 ml PBS the cells were removed from the plate by scraping in 1 ml PBS. The cells were pelleted by centrifugation at 3,000 rpm for 3 minutes and re-suspended in 1 ml PBS. Seven μl aliquots of cells were loaded on microscope slides and covered with a, coverslip. NBD fluorescence was then imaged by confocal laser scanning microscopy using a Zeiss LSM 5 Pascal confocal laser scanning microscope system (Carl Zeiss AG, German).
In other experiments, fluorescence intensity was measured for the each well of cells whereby cells were placed in fluorescence cuvettes using Fluorolog (Jobin Yvon Horiba, Edison, N.J.) with an excitation wavelength of 465 nm and emission wavelength of 534 nm. A non-specific lipid transfer control was prepared in a similar fashion without cyclodextrin.
In an analogous experiment, A549 cells were ^3H labeled and subjected to lipid exchange with cyclodextrin-lipid complex. The cells were collected at different times and lipids extracted and separated on TLC as described above. Radioactivity in the PS+PI and SM bands was subsequently measured by scintillation counting.

A549 cells [3] = experiment: Cell morphology (cell rounding) and cell condition during incubation with MαCD and lipids
Excerpt: In certain embodiments, the appropriate lipid concentration can be determined prior to implementing the exchange methods of the instant disclosure. For example, the optimal lipid concentration can be determined by screening a series of various lipid concentrations. For example, cyclodextrin-lipid complexes of the present disclosure can be formed using a constant alpha-cyclodextrin concentration and varying lipid. Once various solutions of cyclodextrin and lipid are made they can be applied to cells using the methods described herein. This will enable the user to identify the highest concentration(s) lipids where the cells are not negatively affected, i.e., no cell rounding over time is optimal for lipid exchange, as it minimizes cell loss during processing. This can be determined, for example, by splitting cells into each well of a multi-well plate one day before the experiment and growing the cells to confluence. Then equal aliquots of the solutions having various concentrations of lipid are placed in separate wells and incubated at 37° C. for 1-2 hours.
In certain embodiments, the appropriate cyclodextrin concentration can be determined prior to implementing the exchange methods of the instant disclosure. For example, the optimal cyclodextrin concentration can be determined by screening a series of various cyclodextrin concentrations. For example, cyclodextrin-lipid complexes of the present disclosure can be formed using a constant lipid concentration but varying alpha-cyclodextrin concentration. Once various solutions of cyclodextrin and lipid are made they can be applied to cells using the methods described herein. […] This can be determined, for example, by splitting cells into each well of a multi-well plate one day before the experiment and growing the cells to confluence. Then equal aliquots of the solutions having various concentrations of cyclodextrin are placed in separate wells and incubated at 37° C. for 1-2 hours.
In some embodiments, the instructions for the analysis of lipid exchange include methods for identifying optimal concentrations of lipids and/or cyclodextrins for use in exchanging lipids between a cyclodextrin-lipid complex of the present disclosure and a cell membrane. […] As such, instructions included within kits of the instant disclosure can include, instructions for screening a series of various cyclodextrin or lipid concentrations. For example, the instructions can include maintaining a constant lipid concentration and altering numerous alpha-cyclodextrin concentrations or vice versa. […] This can be determined, for example, by splitting cells into each well of a multi-well plate one day before the experiment and growing the cells to confluency. […]

A549 cells [4] = experiment: Charred TLC of cellular lipids after exchange; type: cell-based, human; conditions: exchange with 3 mM exogenous POPC and MαCD, 1 hour; FIG. 5C lane 4
Experimental: High Performance Thin Layer Chromatography. The samples and pure lipid standards were dissolved in 1:1 (v:v) chloroform/methanol. […] The dissolved lipids then applied to HP-TLC (Silica Gel 60) plates (Merck, KGaA, Darmstadt, Germany) or Uniplate Silica Gel G plates (Analtech, Inc., Newark, Del.) and chromatographed in 65:25:5 (v:v) chloroform/methanol/28.0-30.0 (v/v) % ammonium hydroxide. Following chromatography, the TLC plates were air-dried and saturated with 3% (w/v) cupric-acetate-8% (v/v) phosphoric acid by spraying, and then air-dried again. Plates were then charred at 180° C. to develop lipid bands. Lipid band intensity was measured using Image J software (National Institutes of Health). Lipids in samples were quantified by comparing background-subtracted band intensity with that of a curve composed of various standard amounts of each lipid chromatographed on the same TLC plate. The intensity in the standard bands was fit to a linear intensity versus lipid quantity curve.
Analysis of exogenous lipid exchange over time after delivery into A549 cells. After a 1 h at 37° C. treatment with 40 mM MαCD mixed with 1.5 mM bSM, A549 cells were washed three times with DPBS. Then the cells were cultured for 0, 2, 4, and 6 hours in 10 mL RPMI 1640 medium supplemented with 10% fetal bovine serum. […]

A549 cells [5] = experiment: Dithionite quenching of the NBD-DPPE exchanged into the cells; type: cell-based, human
Experimental: Dithionite Quenching of the NBD-DPPE Exchanged into the Cells. Cells into which NBD-DPPE was exchanged were prepared as described above, except at either 15° C., room temperature (23° C.) or 37° C. Fluorescence was measured before and (as a function of time) after the addition of a freshly prepared solution of IM dithionite in IM Tris buffer (pH 10) to the cells providing a final dithionite concentration of 50 mM.

## CCCCCCCCCCCCC/C=C/[C@@H](O)[C@H](COP(=O)([O-])OCC[N+](C)(C)C)NC(=O)CCCCCCCCCCCCCCCC [C17:0 SM, N-hepadecanoyl-D-erythro-sphingosylphosphorylcholine]
A549 cells [1]
  exogenous C17:0 SM in cells after exchange relative to total endogenous cell SM prior to exchange: 2.1 fold

## Methyl-β-cyclodextrin [MβCD]
MDA-MB-231 cells
  clathrin-mediated endocytosis of transferrin: strongly inhibited

## OC[C@H]1O[C@@](CO)(O[C@H]2O[C@H](CO)[C@@H](O)[C@H](O)[C@H]2O)[C@@H](O)[C@@H]1O [sucrose]
A549 cells [2]; 40 or 240 mM sucrose substituted for MαCD
  amount of fluorescent lipid delivered to cells relative to buffer only: did not increase

## 1-palmitoyl-2-oleoyl-sn-glycerol-3-phosphocholine [POPC]
A549 cells [3]; 3 mM POPC, 40 mM MαCD
  incubation time at which normal morphology begins to change: ≈45′
A549 cells [3]; 3 mM POPC, 80 mM MαCD
  incubation time at which normal morphology begins to change: ≈15′
A549 cells [3]; 6 mM POPC, 40 mM MαCD
  incubation time at which normal morphology begins to change: ≈45′
A549 cells [3]; […] POPC, 40 mM MαCD
  incubation time at which normal morphology begins to change: ≈15′
A549 cells [4]
  removal of endogenous SM: most endogenous SM was removed

## CCCCCCCCCCCCCCCC(=O)OC[C@H](COP(=O)(O)OCCNc1ccc([N+](=O)[O-])c2nonc12)OC(=O)CCCCCCCCCCCCCCC [NBD-DPPE, 1,2-dipalmitoyl-sn-glycero-3-phosphoethanolamine-N-(7-nitro-2-1,3-benzoxadiazol-4-yl)]
A549 cells [5]; FIG. 3B
  NBD-lipid exchanged into cells accessible to dithionite: 70-80%
A549 cells [5]; incubation at 15° C.
  fluorescence protected from dithionite reduction: about 20%
A549 cells [5]; incubation at 37° C., extrapolated to time zero
  fluorescence protected from dithionite reduction: approximately 30%
A549 cells [2]; 37° C., FIG. 2A
  half-time of delivery of NBD-DPPE and removal of endogenous SM: 15 to 20 min
A549 cells [2]; A549 cells, 37° C., FIG. 2A legend
  Half-time of lipid exchange (endogenous SM removal / NBD-DPPE delivery): 10 to 15 min
